The values that follow come from patent US20180273464A1, “SYNTHESIS AND IN VITRO ACTIVITY OF D-LACTIC ACID OLIGOMERS” (priority 2018, published 2018).

Series [1] can be described thus: Sequestration of L-lactate by D-lactic acid oligomers, tetrazolium indicator color test strips. Conditions: for Tetrazolium indicator (L-lactic acid): room temperature, 2 minutes; for sequestration of L-lactate in vitro: summary statement. As for the experimental part: Lactic acid concentration was measured by tetrazolium indicator color test strips (Accuvin, LLC, Napa, Calif.) from the reaction of L-lactic acid and […] in the presence of lactate dehydrogenase. Samples of D-lactic acid oligomers (n=2, n=3, n=4, n=5, and n=6) were weighed on truncated 100 microliter pipette tips. […] The reactions were carried out at room temperature for 2 minutes, then 20 microliters were applied to L-lactic acid test strips, and the results were read after 2 minutes.

The conditions of series [2]: earlier work (Goldberg, Weinberg 2017); cited from earlier work.
A further series concerns cultured leukemia cells. The note with it: earlier work (Goldberg, Weinberg 2016, 2017); cited from earlier work.
A further series concerns HeLa cells. The note with it: earlier work (Goldberg, Weinberg 2016, 2017); cited from earlier work.
The next series has as its system retinoblastoma cells. Conditions: earlier work (Goldberg, Weinberg 2016, 2017); cited from earlier work.
Another series relates to normal fibroblasts. The note with it: at a similar hydrogen ion concentration; cited from earlier work.
Setting [3] is: 5.0 mg oligomer in 40 microliters of 10 mM L-lactic acid.

Take `C[C@@H](O)C(=O)O[C@H](C)C(=O)O` [D-lactic acid dimer]: the “Tetrazolium indicator (L-lactic acid)” value in series [1] (0.5 mg oligomer in 40 microliters of 10 mM L-lactic acid) is listed as 80 mg/L; in series [1] (1.0 mg oligomer in 40 microliters of 10 mM L-lactic acid), “no color change”; in series [1] (5.0 mg oligomer in 40 microliters of 10 mM L-lactic acid, result in words), “no color change”; in series [1] (7.0 mg oligomer in 40 microliters of 10 mM L-lactic acid) it was “no color change”. Further, the “sequestration of L-lactate” value in series [2] was ““sequester or trap” L-lactate”. In the series on cultured leukemia cells, the “killing of cultured leukemia cells” value is “kill”. Further, the “killing of cultured HeLa cells” value with HeLa cells is given as “kill”. In addition, in the series on retinoblastoma cells, the “killing of cultured retinoblastoma cells” value was “kill”. Further, in the series with normal fibroblasts, the “cytotoxicity to normal fibroblasts compared with L-lactic acid” value was “less cytotoxic than L-lactic”.

`C[C@@H](O)C(=O)O[C@H](C)C(=O)O[C@H](C)C(=O)O` [D-lactic acid n = 3, D-lactic acid trimer]: in series [1] (setting [3]), the “Tetrazolium indicator (L-lactic acid)” value is given as “greater than 400 mg/L”. In series [1], the “sequestration of L-lactate in vitro” value is “did not sequester L-lactate”.

As to `CC(O)C(=O)OC(C)C(=O)OC(C)C(=O)OC(C)C(=O)O` [D-lactic acid n = 4, D-lactic acid tetramer], the “Tetrazolium indicator (L-lactic acid)” value in series [1] (setting [3]) was “greater than 400 mg/L”. Moreover, the “sequestration of L-lactate in vitro” value in series [1] was “did not sequester L-lactate”.

As for `CC(O)C(=O)OC(C)C(=O)OC(C)C(=O)OC(C)C(=O)OC(C)C(=O)O` [D-lactic acid n = 5, D-lactic acid pentamer], the “Tetrazolium indicator (L-lactic acid)” value in series [1] (setting [3]) is recorded as “greater than 400 mg/L”. In addition, the “sequestration of L-lactate in vitro” value in series [1] is reported as “did not sequester L-lactate”.

Turning to `CC(O)C(=O)OC(C)C(=O)OC(C)C(=O)OC(C)C(=O)OC(C)C(=O)OC(C)C(=O)O` [D-lactic acid n = 6, D-lactic acid hexamer], the “Tetrazolium indicator (L-lactic acid)” value in series [1] (setting [3]) is reported as “greater than 400 mg/L”. The “sequestration of L-lactate in vitro” value in series [1] is “did not sequester L-lactate”.
